From patent publication US20240409585A1, “MACROCYCLIC IMMUNOMODULATORS” (priority 2021, published 2024)
Like-named read-outs stand apart in the source and are kept apart here. Numbered stars: 1 amine (or outer) side, 2 acyl side, 3 side chain; on linkers, the order of the positions; unused ones are H or OH. Bridge positions count the residues as written; N and C are the ends. Square brackets hold non-standard residues; d marks the D form. Peptide text beside a SMILES is read from it. * marks the point of attachment. X26 = O=C([C@H](Cc1ccc(-c2cccc(S(=O)(=O)N3CCOCC3)c2)cc1)N[*:1])[*:2]; Bip(4'-NHAc) = CC(=O)Nc1ccc(-c2ccc(C[C@H](N)C(=O)O)cc2)cc1; X17 = Nc1ccc(-c2cccc(C[C@H](N[*:1])C(=O)[*:2])c2)cn1; Phe(3-CF3) = N[C@@H](Cc1cccc(C(F)(F)F)c1)C(=O)O; Ala(morpholin-4-yl) = N[C@@H](CN1CCOCC1)C(=O)O; Phe(4-COOH) = N[C@@H](Cc1ccc(C(=O)O)cc1)C(=O)O; Bip = N[C@@H](Cc1ccc(-c2ccccc2)cc1)C(=O)O; Phe(3-Cl) = N[C@@H](Cc1cccc(Cl)c1)C(=O)O; Phe(3-NH2) = Nc1cccc(C[C@H](N)C(=O)O)c1; Abu(3R-NH2) = C[C@@H](N)[C@H](N)C(=O)O; Phe(3-Me) = Cc1cccc(C[C@H](N)C(=O)O)c1; hArg = N=C(N)NCCCC[C@H](N)C(=O)O; hPhe = N[C@@H](CCc1ccccc1)C(=O)O; Nva(5-OH) = N[C@@H](CCCO)C(=O)O; Cha = N[C@@H](CC1CCCCC1)C(=O)O; hSer = N[C@@H](CCO)C(=O)O; Carboxymethyl = O=C(O)C*; NMeA = CN[C@@H](C)C(=O)O; Orn = NCCC[C@H](N)C(=O)O; Dab = NCC[C@H](N)C(=O)O; Dap = NC[C@H](N)C(=O)O; X9 = O=C(CCF)*

Molecular target: T1, Alexa fluor-647 labeled human PD-L1-Ig binding to Jurkat cell line over-expressing human PD-1 (Homo sapiens, UniProt Q15116)
T1 construct: expressed in transfected cells; host or cells: Jurkat
T1 sequence (Q15116 25-288): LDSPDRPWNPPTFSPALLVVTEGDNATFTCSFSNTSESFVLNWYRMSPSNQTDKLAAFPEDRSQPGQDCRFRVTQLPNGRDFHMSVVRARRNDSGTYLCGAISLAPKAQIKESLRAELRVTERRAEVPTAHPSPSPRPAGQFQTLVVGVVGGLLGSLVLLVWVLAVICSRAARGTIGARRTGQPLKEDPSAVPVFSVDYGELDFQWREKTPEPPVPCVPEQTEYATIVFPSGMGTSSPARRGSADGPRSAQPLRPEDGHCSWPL
Experiment: Jurkat-PD-1 Cell Binding High-Content Screening Assay (CBA): Method 3 (Alexa fluor-647 labeled PD-L1-Ig)
Details: Jurkat-PD-1 cells, Alexa fluor-647 labeled PD-L1-Ig 177 nM
Summary of the method: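 Jurkat cells over-expressing human PD-1 in RPMI/10% FCS were preincubated 2 h at 37 °C with compound, then exposed 1 h to Alexa fluor-647 labeled human PD-L1-Ig (177 nM final). Cells fixed in 4% paraformaldehyde with Hoechst 33342 and binding quantified by high-content imaging.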

[1] = head μM, read-out: CBA Method 3 μM

Row | SMILES | IC50 [1] | IC50 (nM, read-out: CBA Method 3)
1 | Cc1cccc(C[C@@H]2NC(=O)[C@H](CC(=O)O)NC(=O)[C@H](Cc3ccc(OCC(=O)O)cc3)NC(=O)[C@H](CN3CCOCC3)NC(=O)CSC[C@@H](C(=O)N[C@@H](CCN)C(N)=O)NC(=O)[C@H](CCCN)NC(=O)[C@H](C(C)C)NC(=O)[C@H](CC3CCCCC3)NC(=O)[C@H](CCN)NC(=O)[C@@H](CC(C)C)NC(=O)[C@H](C)N(C)C(=O)[C@H](CCC(N)=O)NC(=O)[C@H](Cc3ccc(-c4ccccc4)cc3)NC(=O)[C@H](Cc3ccc(-c4cccc(S(=O)(=O)N5CCOCC5)c4)cc3)NC2=O)c1 [Example 5107] ({CH2CO}-[Ala(morpholin-4-yl)]Y(Carboxymethyl)D[Phe(3-Me)][X26][Bip]Q[NMeA][dL][Dab][Cha]V[Orn]C[Dab]-NH2; thioether N-14) | 0.33 µM | –
2 | Cc1cccc(C[C@@H]2NC(=O)[C@H](CC(=O)O)NC(=O)[C@H](Cc3ccc(OCC(=O)O)cc3)NC(=O)[C@H](CC3CCCCC3)NC(=O)CSC[C@@H](C(=O)N[C@@H](CCN)C(N)=O)NC(=O)[C@H](CCCN)NC(=O)[C@H](C(C)C)NC(=O)[C@H](Cc3cccc(N)c3)NC(=O)[C@H](CCN)NC(=O)[C@@H](CC(C)C)NC(=O)[C@H](C)N(C)C(=O)[C@H](CCC(N)=O)NC(=O)[C@H](Cc3ccc(-c4ccccc4)cc3)NC(=O)[C@H](Cc3ccc(C(=O)O)cc3)NC2=O)c1 [Example 5190] ({CH2CO}-[Cha]Y(Carboxymethyl)D[Phe(3-Me)][Phe(4-COOH)][Bip]Q[NMeA][dL][Dab][Phe(3-NH2)]V[Orn]C[Dab]-NH2; thioether N-14) | 0.02 µM | –
3 | CC(=O)Nc1ccc(-c2ccc(C[C@@H]3NC(=O)[C@H](Cc4cccc(C)c4)NC(=O)[C@H](CC(=O)O)NC(=O)[C@H](Cc4ccc(C(=O)O)cc4)NC(=O)[C@H](CC4CCCCC4)NC(=O)CSC[C@@H](C(=O)N[C@@H](CCN)C(N)=O)NC(=O)[C@H](CCC(=O)O)NC(=O)[C@H](C(C)C)NC(=O)[C@H](CC4CCCCC4)NC(=O)[C@H](CCN)NC(=O)[C@@H](CC(C)C)NC(=O)[C@H](C)N(C)C(=O)[C@H](Cc4ccc(C(=O)O)cc4)NC(=O)[C@H](Cc4ccc(-c5ccccc5)cc4)NC3=O)cc2)cc1 [Example 5199] ({CH2CO}-[Cha][Phe(4-COOH)]D[Phe(3-Me)][Bip(4'-NHAc)][Bip][Phe(4-COOH)][NMeA][dL][Dab][Cha]VEC[Dab]-NH2; thioether N-14) | 0.01 µM | –
4 | CC(C)C[C@H]1NC(=O)[C@H](C)N(C)C(=O)[C@H](CCC(N)=O)NC(=O)[C@H](Cc2ccc(-c3ccccc3)cc2)NC(=O)[C@H](Cc2ccc(OCC(=O)O)cc2)NC(=O)[C@H](Cc2cccc(C(F)(F)F)c2)NC(=O)[C@H](CC(=O)O)NC(=O)[C@H](CCC(N)=O)NC(=O)[C@H](CC2CCCCC2)NC(=O)CSC[C@@H](C(=O)N[C@@H](CCN)C(N)=O)NC(=O)[C@H](CCCN)NC(=O)[C@H](C(C)C)NC(=O)[C@H](CC2CCCCC2)NC(=O)[C@H](CCN)NC1=O [Example 5248] ({CH2CO}-[Cha]QD[Phe(3-CF3)]Y(Carboxymethyl)[Bip]Q[NMeA][dL][Dab][Cha]V[Orn]C[Dab]-NH2; thioether N-14) | – | 0.0006 µM
5 | Cc1cccc(C[C@@H]2NC(=O)[C@H](CC(=O)O)NC(=O)[C@H](Cc3ccc(OCC(=O)O)cc3)NC(=O)[C@H](CCCCNC(=N)N)NC(=O)CSC[C@@H](C(=O)N[C@@H](CCN)C(N)=O)NC(=O)[C@H](CCCN)NC(=O)[C@H](C(C)C)NC(=O)[C@H](CC3CCCCC3)NC(=O)[C@H](CCN)NC(=O)[C@@H](CC(C)C)NC(=O)[C@H](C)N(C)C(=O)[C@H](CCC(N)=O)NC(=O)[C@H](Cc3ccc(-c4ccccc4)cc3)NC(=O)[C@H](Cc3ccc(C(=O)O)cc3)NC2=O)c1 [Example 5184] ({CH2CO}-[hArg]Y(Carboxymethyl)D[Phe(3-Me)][Phe(4-COOH)][Bip]Q[NMeA][dL][Dab][Cha]V[Orn]C[Dab]-NH2; thioether N-14) | – | 0.0011 µM
6 | Cc1cccc(C[C@@H]2NC(=O)[C@H](CC(=O)O)NC(=O)[C@H](Cc3ccc(O)cc3)NC(=O)[C@H](CN3CCOCC3)NC(=O)CSC[C@@H](C(=O)N[C@@H](CCN)C(N)=O)NC(=O)[C@H](CCC(=O)O)NC(=O)[C@H](CCO)NC(=O)[C@H](CC3CCCCC3)NC(=O)[C@H](CCN)NC(=O)[C@@H](CC(C)C)NC(=O)[C@H](C)N(C)C(=O)[C@H](CCC(N)=O)NC(=O)[C@H](Cc3ccc(-c4ccccc4)cc3)NC(=O)[C@H](Cc3ccc(OCC(=O)O)cc3)NC2=O)c1 [Example 5261] ({CH2CO}-[Ala(morpholin-4-yl)]YD[Phe(3-Me)]Y(Carboxymethyl)[Bip]Q[NMeA][dL][Dab][Cha][hSer]EC[Dab]-NH2; thioether N-14) | 0.06 µM | –
7 | Cc1cccc(C[C@@H]2NC(=O)[C@H](CC(=O)O)NC(=O)[C@H](Cc3ccc(OCC(=O)O)cc3)NC(=O)[C@H](Cc3cccc(Cl)c3)NC(=O)CSC[C@@H](C(=O)N[C@@H](CCN)C(N)=O)NC(=O)[C@H](CCCN)NC(=O)[C@H](C(C)C)NC(=O)[C@H](CC3CCCCC3)NC(=O)[C@H](CCN)NC(=O)[C@@H](CC(C)C)NC(=O)[C@H](C)N(C)C(=O)[C@H](CCC(N)=O)NC(=O)[C@H](Cc3ccc(-c4ccccc4)cc3)NC(=O)[C@H](Cc3ccc(C(=O)O)cc3)NC2=O)c1 [Example 5286] ({CH2CO}-[Phe(3-Cl)]Y(Carboxymethyl)D[Phe(3-Me)][Phe(4-COOH)][Bip]Q[NMeA][dL][Dab][Cha]V[Orn]C[Dab]-NH2; thioether N-14) | – | 0.0018 µM

Other lines, results leading:

Row | IC50 [1] | IC50 (nM, read-out: CBA Method 3) | SMILES
8 | – | 0.0065 µM | CC(C)C[C@H]1NC(=O)[C@H](C)N(C)C(=O)[C@H](Cc2ccc(C(=O)O)cc2)NC(=O)[C@H](Cc2ccc(-c3ccccc3)cc2)NC(=O)[C@H](CCc2ccccc2)NC(=O)[C@H](Cc2cccc(C(F)(F)F)c2)NC(=O)[C@H](CC(=O)O)NC(=O)[C@H](Cc2ccc(C(=O)O)cc2)NC(=O)[C@H](CN2CCOCC2)NC(=O)CSC[C@@H](C(=O)N[C@@H](CCN)C(N)=O)NC(=O)[C@H](CCC(N)=O)NC(=O)[C@H](C(C)C)NC(=O)[C@H](CC2CCCCC2)NC(=O)[C@H](CCN)NC1=O [Example 5204] ({CH2CO}-[Ala(morpholin-4-yl)][Phe(4-COOH)]D[Phe(3-CF3)][hPhe][Bip][Phe(4-COOH)][NMeA][dL][Dab][Cha]VQC[Dab]-NH2; thioether N-14)
9 | 0.05 µM | – | CC(C)C[C@H]1NC(=O)[C@H](C)N(C)C(=O)[C@H](CCC(N)=O)NC(=O)[C@H](Cc2ccc(-c3ccccc3)cc2)NC(=O)[C@H](CCc2ccccc2)NC(=O)[C@H](Cc2cccc(C(F)(F)F)c2)NC(=O)[C@H](CC(=O)O)NC(=O)[C@H](Cc2ccc(OCC(=O)O)cc2)NC(=O)[C@H]([C@@H](C)N)NC(=O)CSC[C@@H](C(=O)N[C@@H](CCN)C(N)=O)NC(=O)[C@H](CCC(N)=O)NC(=O)[C@H](C(C)C)NC(=O)[C@H](CC2CCCCC2)NC(=O)[C@H](CCN)NC1=O [Example 5223] ({CH2CO}-[Abu(3R-NH2)]Y(Carboxymethyl)D[Phe(3-CF3)][hPhe][Bip]Q[NMeA][dL][Dab][Cha]VQC[Dab]-NH2; thioether N-14)
10 | – | 0.006 µM | CC(C)C[C@H]1NC(=O)[C@H](C)N(C)C(=O)[C@H](CCC(N)=O)NC(=O)[C@H](Cc2ccc(-c3ccccc3)cc2)NC(=O)[C@H](CCc2ccccc2)NC(=O)[C@H](Cc2cccc(C(F)(F)F)c2)NC(=O)[C@H](CC(=O)O)NC(=O)[C@H](Cc2ccc(OCC(=O)O)cc2)NC(=O)[C@H](CN2CCOCC2)NC(=O)CSC[C@@H](C(=O)N[C@@H](CCN)C(N)=O)NC(=O)[C@H](CCCN)NC(=O)[C@H](C(C)C)NC(=O)[C@H](CC2CCCCC2)NC(=O)[C@H](CCN)NC1=O [Example 5216] ({CH2CO}-[Ala(morpholin-4-yl)]Y(Carboxymethyl)D[Phe(3-CF3)][hPhe][Bip]Q[NMeA][dL][Dab][Cha]V[Orn]C[Dab]-NH2; thioether N-14)
11 | 0.27 µM | – | Cc1cccc(C[C@@H]2NC(=O)[C@H](CC(=O)O)NC(=O)[C@H](Cc3ccc(OCC(=O)O)cc3)NC(=O)[C@H](CN3CCOCC3)NC(=O)CSC[C@@H](C(=O)N[C@@H](CCN)C(N)=O)NC(=O)[C@H](CCCO)NC(=O)[C@H](C(C)C)NC(=O)[C@H](CC3CCCCC3)NC(=O)[C@H](CCN)NC(=O)[C@@H](CC(C)C)NC(=O)[C@H](C)N(C)C(=O)[C@H](CCC(N)=O)NC(=O)[C@H](Cc3ccc(-c4ccccc4)cc3)NC(=O)[C@H](Cc3cccc(-c4ccc(N)nc4)c3)NC2=O)c1 [Example 5100] ({CH2CO}-[Ala(morpholin-4-yl)]Y(Carboxymethyl)D[Phe(3-Me)][X17][Bip]Q[NMeA][dL][Dab][Cha]V[Nva(5-OH)]C[Dab]-NH2; thioether N-14)
12 | 0.03 µM | – | CC(C)C[C@H]1NC(=O)[C@H](C)N(C)C(=O)[C@H](Cc2ccc(C(=O)O)cc2)NC(=O)[C@H](Cc2ccc(-c3ccccc3)cc2)NC(=O)[C@H](Cc2ccc(C(=O)O)cc2)NC(=O)[C@H](Cc2cccc(C(F)(F)F)c2)NC(=O)[C@H](CC(=O)O)NC(=O)[C@H](Cc2ccc(C(=O)O)cc2)NC(=O)[C@H](CN2CCOCC2)NC(=O)CSC[C@@H](C(=O)N[C@@H](CCN)C(N)=O)NC(=O)[C@H](CNC(=O)CCF)NC(=O)[C@H](C(C)C)NC(=O)[C@H](CC2CCCCC2)NC(=O)[C@H](CCN)NC1=O [Example 5230] ({CH2CO}-[Ala(morpholin-4-yl)][Phe(4-COOH)]D[Phe(3-CF3)][Phe(4-COOH)][Bip][Phe(4-COOH)][NMeA][dL][Dab][Cha]V[Dap](X9)C[Dab]-NH2; thioether N-14)
13 | – | 0.0017 µM | CC(C)C[C@H]1NC(=O)[C@H](C)N(C)C(=O)[C@H](Cc2ccc(C(=O)O)cc2)NC(=O)[C@H](Cc2ccc(-c3ccccc3)cc2)NC(=O)[C@H](Cc2ccc(C(=O)O)cc2)NC(=O)[C@H](Cc2cccc(C(F)(F)F)c2)NC(=O)[C@H](CC(=O)O)NC(=O)[C@H](Cc2ccc(C(=O)O)cc2)NC(=O)[C@H](CC2CCCCC2)NC(=O)CSC[C@@H](C(=O)N[C@@H](CCN)C(N)=O)NC(=O)[C@H](CCC(=O)O)NC(=O)[C@H](C(C)C)NC(=O)[C@H](CC2CCCCC2)NC(=O)[C@H](CCN)NC1=O [Example 5195] ({CH2CO}-[Cha][Phe(4-COOH)]D[Phe(3-CF3)][Phe(4-COOH)][Bip][Phe(4-COOH)][NMeA][dL][Dab][Cha]VEC[Dab]-NH2; thioether N-14)
